Experimental data taken from patent US7396672B2, “Method for the production of dinoflagellate cultures” (priority 2003, dated 2008).

What was measured:
Format in all cases: cell-based
[1] = test system: Cylindricus fusiformis (PCC100); assay: cell proliferation assay, monoculture of phytoplankton; conditions: 8 days
Description: (§1) The effects of mimosine at low mM concentrations on pure cultures of four different groups of phytoplankton were tested. The phytoplankton tested were the Cryptophyceae Rhodomonas salina (CCMP1319), the Prymnesiophyceae Isochrysis galbana (CCMP1323), the Bacillariophyceae Cylindricus fusiformis (PCC100) and the dinoflagellate Heterocapsa triquetra (CCMP449). Cultures of phytoplankters were obtained from Bigelow Laboratory for Ocean Sciences (CCMP) or the Plymouth Culture Collection (PCC). The cultures were maintained in f/2 medium at 18° C., under photon flux of […] from fluorescent tubes (Phillips daylight) under a 14:10 hours light/dark cycle. For cell proliferation assays, exponentially growing cells were diluted ten times with fresh medium before the addition of mimosine to give cultures having a final mimosine concentration of 0.01, 0.1 and 1 mM. All chemicals were from Sigma Corporation unless otherwise stated. All growth studies were performed in triplicate. Cell counting was performed by Coulter counter and all samples were counted at least three times.

[2] = test system: Heterocapsa triquetra (CCMP449); assay: as above; conditions: 1 mM mimosine
Description: as §1

[3] = test system: Isochrysis galbana (CCMP1323); assay: as above; conditions: 8 days
Description: as §1

[4] = test system: Rhodomonas salina (CCMP1319); assay: as above; conditions: 8 days
Description: as §1

diatoms = assay: mixed phytoplankton in natural seawater samples; conditions: 2 mM mimosine, 6 days, diatoms dominant group in the control
Description: (§2) Whether mimosine can confer an advantage in the phytoplankton community by adding mimosine directly to natural seawater samples was therefore tested. Natural seawater samples were collected from Port Shelter (eastern Hong Kong) and filtered through a 100 μm mesh to remove all zooplankton immediately before use. Mimosine was then added at 2 mM and samples were taken for estimation of the percentage of dinoflagellates and diatoms. The samples were then incubated under the same conditions as in Example 1. Within 6 days, dinoflagellates became the dominant group. The dinoflagellate population increased from 30% to 60% of the total population (FIG. 2). The diatoms, which were the dominant group in the control, decreased to 10% of the total population in 6 days (at the time of measurement) upon treatment with mimosine.

dinoflagellates = assay: mixed phytoplankton in natural seawater samples; conditions: 2 mM mimosine
Description: as §2

[5] = 0.01 and 0.1 mM mimosine, f/2 medium

Structure (SMILES): NC(Cn1ccc(=O)c(O)c1)C(=O)O (stereo not drawn) [mimosine, α-amino-3-hydroxy-4-oxo-1-pyridine propanoic acid]
- mean cell numbers significantly lower than those in the controls ([1]; 1 mM mimosine): 25%
- cell number compared to control treatment [1, 5]: slightly lower numbers of cells, though not significantly so
- cell number compared to control treatment [2]: increased the cell number significantly
- cell number increase ([3]; 1 mM mimosine): no cell number increase
- cell number compared to control treatment [3, 5]: slightly lower numbers of cells, though not significantly so
- mean cell numbers significantly lower than those in the controls ([4]; 1 mM mimosine): 75%
- cell number compared to control treatment [4, 5]: slightly lower numbers of cells, though not significantly so
- diatoms as percentage of the total population (diatoms): 10%
- time until dinoflagellates became the dominant group (dinoflagellates; natural seawater): ≤ 6 days
- dinoflagellate population as percentage of the total population (dinoflagellates; natural seawater (Port Shelter), 6 days, increased from 30%): 60%
